Reference: ChEMBL document CHEMBL1155519, “Discovery of N-phenyl-4-(thiazol-5-yl)pyrimidin-2-amine aurora kinase inhibitors” (J Med Chem, 2010)
The source made the active and inactive calls. The rule behind the calls is not given here.

Legend:
MCF7 = assay: Cytotoxicity against human MCF7 cells after 96 hrs by MTT assay; format: functional, cell-based; settings: MCF7, 96 h
HeLa [1] = assay: Cytotoxicity against human HeLa cells after 96 hrs by MTT assay; format: functional, cell-based
K562 = assay: Cytotoxicity against human K562 cells after 96 hrs by MTT assay; format: functional, cell-based; settings: K562, 96 h
CCRF-CEM = assay: Cytotoxicity against human CCRF-CEM cells after 96 hrs by MTT assay; format: functional, cell-based
MV4-11 = assay: Cytotoxicity against human MV4-11 cells after 96 hrs by MTT assay; format: functional, cell-based; settings: MV4-11, 96 h
HL-60 = assay: Cytotoxicity against human HL60 cells after 96 hrs by MTT assay; format: functional, cell-based; settings: HL-60, 96 h
U2OS = assay: Inhibition of Aurora kinase in nocodazole-synchronized human U2OS cells assessed as reduction of histone H3 serine-10 phosphorylation at 0.07 to 10 uM after 2 hrs immunofluorescence microscopy; format: cell-based
[2] = Apparent permeability across human Caco-2 cell membrane; format: ADME, cell-based
Liver microsomes = assay: Intrinsic clearance in rat liver microsomes by LC/MS/MS analysis; format: ADME, Microsome
[3] = Cmax in Wistar rat at 10 mg/kg, po after 24 hrs by LC/MS/MS analysis; format: ADME, organism-based; design: dose 10 mg/kg, route oral; settings: in vivo
[4] = AUC (0 to 24 hrs) in Wistar rat at 10 mg/kg, po after 24 hrs by LC/MS/MS analysis; format: ADME, organism-based; design: time < 24 hr, dose 10 mg/kg, route oral; settings: plasma
[5] = Elimination half life in Wistar rat at 10 mg/kg, po by LC/MS/MS analysis; format: ADME, organism-based; design: dose 10 mg/kg, route oral; settings: in vivo, read-out: beta t1/2 (converted)
[6] = Clearance in Wistar rat at 10 mg/kg, po after 24 hrs by LC/MS/MS analysis; format: ADME, organism-based; design: dose 10 mg/kg, route oral; settings: in vivo
[7] = Oral bioavailability in Wistar rat at 10 mg/kg after 24 hrs by LC/MS/MS analysis; format: ADME, organism-based; settings: in vivo
Cytochrome P450 1A [8] = biological target: T1, Cytochrome P450 1A (Homo sapiens, UniProt P04798+P05177); assay: Inhibition of human recombinant CYP1A at 5 uM; format: ADME; settings: recombinant enzyme
Cytochrome P450 3A4 = Cytochrome P450 3A4 (Homo sapiens, UniProt P08684); assay: Inhibition of human recombinant CYP3A4 at 5 uM; format: ADME; settings: recombinant enzyme
Cytochrome P450 3A4, sequence (P08684 whole entry): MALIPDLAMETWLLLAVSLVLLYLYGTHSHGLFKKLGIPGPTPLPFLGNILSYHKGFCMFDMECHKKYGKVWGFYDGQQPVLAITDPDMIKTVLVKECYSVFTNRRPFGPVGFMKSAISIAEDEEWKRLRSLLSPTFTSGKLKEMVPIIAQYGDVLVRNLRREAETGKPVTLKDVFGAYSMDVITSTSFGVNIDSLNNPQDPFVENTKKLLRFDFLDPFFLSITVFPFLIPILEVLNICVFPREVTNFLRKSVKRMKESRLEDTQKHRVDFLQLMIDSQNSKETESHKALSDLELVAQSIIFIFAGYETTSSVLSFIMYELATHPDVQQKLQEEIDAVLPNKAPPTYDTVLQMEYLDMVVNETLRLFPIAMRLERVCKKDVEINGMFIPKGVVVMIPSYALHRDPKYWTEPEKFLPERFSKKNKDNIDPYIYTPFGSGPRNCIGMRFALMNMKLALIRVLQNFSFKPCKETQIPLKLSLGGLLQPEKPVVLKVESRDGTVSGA

CYP1A2 = assay: In vitro elimination half life at 5 uM in presence of human recombinant CYP1A2; format: ADME; settings: read-out: beta t1/2
Cytochrome P450 1A [9] = biological target: T1, Cytochrome P450 1A; assay: Inhibition of CYP1A in human hepatocyte at 1 uM; format: ADME, cell-based; settings: hepatocytes
HeLa [10] = assay: Inhibition of Aurora kinase in human HeLa cells assessed as complete inhibition of histone H3 phosphorylation at 1.25 uM after 7 hrs by Western blot analysis; format: cell-based
SW-620 = assay: Induction of apoptosis in human SW620 cells assessed as early apoptotic cells at 1 uM after 24 hrs by TUNEL assay; format: functional
NCI-H460 [11] = assay: Antitumor activity against human NCI-H460 cells xenografted in athymic mouse assessed as delay in tumor growth at 100 mg/kg, po administered QD on day 1 after implantation for 5 days; format: functional
NCI-H460 [12] = assay: Antitumor activity against human NCI-H460 cells xenografted in athymic mouse assessed as reduction in tumor volume at 75 mg/kg, po administered QD on day 1 after implantation for 5 days; format: functional, organism-based; design: dose 75 mg/kg
NCI-H460 [13] = assay: Antitumor activity against human NCI-H460 cells xenografted in athymic mouse assessed as reduction in mean tumor volume at 100 mg/kg, po administered QD on day 1 after implantation for 5 days measured on day 6 relative to control; format: functional; design: scale not given: the % may be the effect or the level left
[14] = Inhibition of Aurora kinase in human A549 cells assessed as concentration required for half-maximal inhibition of histone H3 serine-10 phosphorylation after 7 hrs immunofluorescence microscopy; format: cell-based; settings: A549, 7 h
[15] = Antitumor activity against mouse P388D1 cells xenografted in BALB/c mouse assessed as increase in life span at 45 mg/kg, po administered BID on days 1-3 and 7-9 after tumor implantation relative to control
[16] = Antitumor activity against mouse P388D1 cells xenografted in BALB/c mouse assessed as increase in life span at 67 mg/kg, po administered BID on days 1-3 and 7-9 after tumor implantation relative to control

Cc1nc(N)sc1-c1ccnc(Nc2ccc(N3CCOCC3)cc2)n1 [CYC-116]
IC50 (MCF7): 599 nM
IC50 (HeLa [1]): 590 nM
IC50 (K562): 1380 nM
IC50 (CCRF-CEM): 471 nM
IC50 (MV4-11): 34 nM
IC50 (HL-60): 372 nM
inhibition (U2OS): Active
Papp [2]: 47 ×10⁻⁶ cm/s
clearance (Liver microsomes): 42.3 µL/min/mg
Cmax [3]: 3.9 µM
AUC(0-t) at 24 h [4]: 13.6 µM·h
half-life [5]: 3 h
CL/F [6]: 33.3 mL/min/kg
bioavailability [7]: 38%
inhibition (INH) (Cytochrome P450 1A [8]): Active
inhibition (INH) (Cytochrome P450 3A4): Active
half-life at 5 µM (CYP1A2): 1.2 h
inhibition (INH) (Cytochrome P450 1A [9]): Not Active
inhibition (HeLa [10]): Active
Activity (SW-620): 91%
Activity (NCI-H460 [11]): 5.8 days
Activity (NCI-H460 [12]): Active
Activity (NCI-H460 [13]): 40%
IC50 [14]: 480 nM
Activity [15]: 172%
Activity [16]: 183%
